In experiment [1] the target is T1, Alpha-2A adrenergic receptor (Homo sapiens, UniProt P08913).
T1 sequence (P08913 whole entry): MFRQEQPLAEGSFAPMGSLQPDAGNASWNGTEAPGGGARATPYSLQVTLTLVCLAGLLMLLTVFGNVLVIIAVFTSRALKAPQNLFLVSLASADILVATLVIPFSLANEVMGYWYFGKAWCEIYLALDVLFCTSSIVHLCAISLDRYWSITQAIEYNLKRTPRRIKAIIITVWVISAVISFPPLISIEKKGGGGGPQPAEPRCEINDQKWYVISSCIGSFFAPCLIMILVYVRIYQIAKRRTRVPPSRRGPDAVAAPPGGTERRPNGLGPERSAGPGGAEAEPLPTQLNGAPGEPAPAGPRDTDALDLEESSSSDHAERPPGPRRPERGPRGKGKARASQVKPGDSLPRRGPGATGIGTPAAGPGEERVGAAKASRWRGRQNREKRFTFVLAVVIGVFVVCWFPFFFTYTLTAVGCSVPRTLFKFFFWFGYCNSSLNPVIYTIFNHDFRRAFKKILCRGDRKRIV
Format: functional, cell-based.

In experiment [2] the target is T2, Cholecystokinin receptor type A (Homo sapiens, UniProt P32238).
T2 sequence (P32238 whole entry): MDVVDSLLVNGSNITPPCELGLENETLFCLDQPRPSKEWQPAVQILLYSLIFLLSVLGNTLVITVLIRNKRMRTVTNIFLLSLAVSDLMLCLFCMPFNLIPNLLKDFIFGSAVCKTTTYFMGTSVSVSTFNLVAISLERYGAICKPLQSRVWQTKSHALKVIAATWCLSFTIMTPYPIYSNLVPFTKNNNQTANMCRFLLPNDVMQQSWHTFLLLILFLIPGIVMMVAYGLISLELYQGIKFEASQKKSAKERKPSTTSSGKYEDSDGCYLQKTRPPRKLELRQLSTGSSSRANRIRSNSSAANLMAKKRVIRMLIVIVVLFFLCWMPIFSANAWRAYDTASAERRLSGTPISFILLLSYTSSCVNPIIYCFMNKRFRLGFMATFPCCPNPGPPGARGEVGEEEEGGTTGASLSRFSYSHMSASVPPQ

Experiment [3] concerns the target D(1A) dopamine receptor (Homo sapiens, UniProt P21728). Format: functional, cell-based.
In experiment [4] the target is T3, 5-hydroxytryptamine receptor 1A (Homo sapiens, UniProt P08908).
T3 sequence (P08908 whole entry): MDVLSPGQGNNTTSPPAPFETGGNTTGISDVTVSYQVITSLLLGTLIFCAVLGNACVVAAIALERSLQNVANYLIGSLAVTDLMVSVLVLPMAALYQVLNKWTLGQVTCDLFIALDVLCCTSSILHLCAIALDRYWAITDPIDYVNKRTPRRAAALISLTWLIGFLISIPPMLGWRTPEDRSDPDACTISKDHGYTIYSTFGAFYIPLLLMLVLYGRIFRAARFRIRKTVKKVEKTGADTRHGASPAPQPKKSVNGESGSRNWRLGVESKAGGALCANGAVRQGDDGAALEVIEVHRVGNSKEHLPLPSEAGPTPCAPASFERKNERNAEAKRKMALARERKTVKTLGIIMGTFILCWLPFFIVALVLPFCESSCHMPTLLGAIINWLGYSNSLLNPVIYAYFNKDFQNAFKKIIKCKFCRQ
Type of experiment: functional, cell-based.

Experiment [5] concerns the target Voltage-gated inwardly rectifying potassium channel KCNH2 (Homo sapiens, UniProt Q12809). Format: functional.
Experiment [6] addresses Melanocortin receptor 3 (Homo sapiens, UniProt P41968).
Experiment [7] concerns the target T4, Equilibrative nucleoside transporter 1 (Homo sapiens, UniProt Q99808).
T4 sequence (Q99808 whole entry): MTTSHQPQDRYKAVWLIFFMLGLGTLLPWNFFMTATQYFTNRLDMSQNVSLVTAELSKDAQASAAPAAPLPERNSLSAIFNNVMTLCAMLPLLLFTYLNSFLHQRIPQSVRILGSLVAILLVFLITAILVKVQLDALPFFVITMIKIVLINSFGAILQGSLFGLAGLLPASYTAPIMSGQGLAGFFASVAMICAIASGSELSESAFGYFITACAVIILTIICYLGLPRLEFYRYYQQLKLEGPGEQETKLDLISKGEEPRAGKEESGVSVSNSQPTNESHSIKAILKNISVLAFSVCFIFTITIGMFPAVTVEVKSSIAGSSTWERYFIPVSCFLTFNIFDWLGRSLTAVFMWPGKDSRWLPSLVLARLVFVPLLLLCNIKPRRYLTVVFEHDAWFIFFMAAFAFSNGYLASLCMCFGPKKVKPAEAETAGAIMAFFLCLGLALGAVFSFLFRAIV

Experiment [8] concerns the target T5, Thromboxane A2 receptor (Homo sapiens, UniProt P21731).
T5 sequence (P21731 whole entry): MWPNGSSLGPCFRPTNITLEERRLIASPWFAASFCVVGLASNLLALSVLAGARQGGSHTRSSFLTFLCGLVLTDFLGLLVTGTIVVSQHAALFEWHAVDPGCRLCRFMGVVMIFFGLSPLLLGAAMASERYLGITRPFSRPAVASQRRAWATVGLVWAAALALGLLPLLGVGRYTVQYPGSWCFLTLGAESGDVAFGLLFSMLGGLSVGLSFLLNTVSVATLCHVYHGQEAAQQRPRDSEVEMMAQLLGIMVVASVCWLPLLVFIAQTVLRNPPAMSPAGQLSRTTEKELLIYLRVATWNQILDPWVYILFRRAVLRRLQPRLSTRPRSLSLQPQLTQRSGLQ

The target of experiment [9] is Sodium-dependent dopamine transporter (Homo sapiens, UniProt Q01959).
Sodium-dependent dopamine transporter, sequence (Q01959 whole entry): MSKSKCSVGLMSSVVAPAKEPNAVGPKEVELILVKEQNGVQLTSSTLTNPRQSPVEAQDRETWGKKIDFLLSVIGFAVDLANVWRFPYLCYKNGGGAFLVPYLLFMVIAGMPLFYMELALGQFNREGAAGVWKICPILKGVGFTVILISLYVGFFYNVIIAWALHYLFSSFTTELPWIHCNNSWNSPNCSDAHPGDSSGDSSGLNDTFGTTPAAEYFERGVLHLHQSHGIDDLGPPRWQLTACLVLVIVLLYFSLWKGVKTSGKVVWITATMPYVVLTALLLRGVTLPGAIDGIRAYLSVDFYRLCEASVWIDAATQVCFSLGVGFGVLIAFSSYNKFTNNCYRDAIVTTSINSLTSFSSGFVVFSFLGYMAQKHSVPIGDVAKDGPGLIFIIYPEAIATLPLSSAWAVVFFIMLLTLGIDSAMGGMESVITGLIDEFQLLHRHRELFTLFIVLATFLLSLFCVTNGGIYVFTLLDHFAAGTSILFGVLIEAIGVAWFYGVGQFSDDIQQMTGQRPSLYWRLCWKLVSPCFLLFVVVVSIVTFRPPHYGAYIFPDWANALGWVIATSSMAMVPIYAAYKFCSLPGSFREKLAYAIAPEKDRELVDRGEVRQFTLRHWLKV
The target of experiment [10] is T6, Amine oxidase [flavin-containing] A (Homo sapiens, UniProt P21397).
T6 sequence (P21397 whole entry): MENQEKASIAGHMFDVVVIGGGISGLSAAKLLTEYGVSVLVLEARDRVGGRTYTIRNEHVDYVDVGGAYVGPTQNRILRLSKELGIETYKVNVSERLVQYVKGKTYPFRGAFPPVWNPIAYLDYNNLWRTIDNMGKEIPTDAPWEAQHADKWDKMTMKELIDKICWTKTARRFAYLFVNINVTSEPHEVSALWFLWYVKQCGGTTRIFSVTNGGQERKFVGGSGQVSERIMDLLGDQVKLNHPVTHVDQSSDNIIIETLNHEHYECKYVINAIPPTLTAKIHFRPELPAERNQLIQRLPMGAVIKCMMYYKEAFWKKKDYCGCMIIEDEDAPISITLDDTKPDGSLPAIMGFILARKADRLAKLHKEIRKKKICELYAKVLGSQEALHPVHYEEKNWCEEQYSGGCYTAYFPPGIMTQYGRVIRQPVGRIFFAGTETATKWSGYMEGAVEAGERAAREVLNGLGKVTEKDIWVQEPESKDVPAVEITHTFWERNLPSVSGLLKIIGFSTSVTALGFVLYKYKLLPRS
Format: functional.
Also: assay procedure not described here.

Melanocortin receptor 3, sequence (P41968 whole entry): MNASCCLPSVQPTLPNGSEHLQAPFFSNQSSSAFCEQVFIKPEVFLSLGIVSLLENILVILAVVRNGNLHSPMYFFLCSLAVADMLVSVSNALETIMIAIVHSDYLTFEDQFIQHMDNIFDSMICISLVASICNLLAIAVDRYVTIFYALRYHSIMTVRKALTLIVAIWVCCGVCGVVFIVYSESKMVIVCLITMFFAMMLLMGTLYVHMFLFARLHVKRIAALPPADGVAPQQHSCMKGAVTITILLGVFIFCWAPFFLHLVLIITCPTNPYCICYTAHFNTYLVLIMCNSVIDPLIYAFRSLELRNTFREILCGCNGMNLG
Voltage-gated inwardly rectifying potassium channel KCNH2, sequence (Q12809 whole entry): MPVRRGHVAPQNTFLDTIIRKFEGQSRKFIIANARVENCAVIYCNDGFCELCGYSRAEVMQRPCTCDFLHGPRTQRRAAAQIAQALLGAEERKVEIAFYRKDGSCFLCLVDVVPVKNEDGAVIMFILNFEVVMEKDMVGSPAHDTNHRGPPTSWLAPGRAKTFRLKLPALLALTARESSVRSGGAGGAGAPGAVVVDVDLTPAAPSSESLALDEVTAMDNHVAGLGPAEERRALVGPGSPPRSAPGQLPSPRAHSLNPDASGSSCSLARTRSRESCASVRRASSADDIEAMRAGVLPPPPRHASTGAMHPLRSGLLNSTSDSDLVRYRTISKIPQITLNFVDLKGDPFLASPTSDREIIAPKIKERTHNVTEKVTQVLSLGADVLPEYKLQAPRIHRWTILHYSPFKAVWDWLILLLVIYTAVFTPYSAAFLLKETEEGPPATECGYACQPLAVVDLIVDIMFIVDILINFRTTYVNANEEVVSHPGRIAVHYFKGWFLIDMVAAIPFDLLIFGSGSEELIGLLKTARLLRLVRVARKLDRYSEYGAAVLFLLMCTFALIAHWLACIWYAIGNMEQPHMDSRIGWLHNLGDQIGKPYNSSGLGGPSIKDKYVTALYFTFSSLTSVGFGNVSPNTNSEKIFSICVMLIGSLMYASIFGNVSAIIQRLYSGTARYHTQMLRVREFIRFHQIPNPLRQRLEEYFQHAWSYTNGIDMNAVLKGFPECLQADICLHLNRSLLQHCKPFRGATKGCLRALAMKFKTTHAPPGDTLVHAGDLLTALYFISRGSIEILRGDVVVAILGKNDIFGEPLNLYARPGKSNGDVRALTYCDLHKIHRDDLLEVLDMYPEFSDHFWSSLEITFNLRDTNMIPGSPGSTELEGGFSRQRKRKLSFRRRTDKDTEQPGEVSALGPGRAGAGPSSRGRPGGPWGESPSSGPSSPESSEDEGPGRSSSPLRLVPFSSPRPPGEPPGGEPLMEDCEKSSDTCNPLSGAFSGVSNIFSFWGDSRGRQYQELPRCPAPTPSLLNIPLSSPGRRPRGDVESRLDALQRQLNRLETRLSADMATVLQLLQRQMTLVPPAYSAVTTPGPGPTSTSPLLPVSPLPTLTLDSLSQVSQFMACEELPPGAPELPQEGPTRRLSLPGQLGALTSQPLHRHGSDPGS
D(1A) dopamine receptor, sequence (P21728 whole entry): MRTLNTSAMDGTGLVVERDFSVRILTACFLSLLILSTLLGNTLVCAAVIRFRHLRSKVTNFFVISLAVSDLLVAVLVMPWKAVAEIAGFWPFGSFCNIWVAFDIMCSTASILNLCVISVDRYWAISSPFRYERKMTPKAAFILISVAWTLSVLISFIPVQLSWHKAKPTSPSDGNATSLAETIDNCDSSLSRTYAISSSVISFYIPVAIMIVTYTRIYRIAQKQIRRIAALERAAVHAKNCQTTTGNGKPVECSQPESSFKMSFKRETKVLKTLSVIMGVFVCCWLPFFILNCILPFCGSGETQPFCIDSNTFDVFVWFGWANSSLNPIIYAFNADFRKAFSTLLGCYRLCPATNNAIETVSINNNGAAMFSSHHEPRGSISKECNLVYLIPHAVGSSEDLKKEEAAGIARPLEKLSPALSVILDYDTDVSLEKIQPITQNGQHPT

For orientation: AC50 means the concentration giving half of the maximal activity seen. A high value points to weaker potency. With `CC(=O)[C@H]1CC[C@H]2[C@@H]3C[C@H](C)C4=CC(=O)CC[C@]4(C)[C@H]3[C@@H](O)C[C@]12C` [MEDRYSONE], the concentration at half-maximal activity (AC50) in experiment [1] is over 10 µM; in experiment [2], over 10 µM; in experiment [3] it was over 10 µM; in experiment [4], over 10 µM; in experiment [5], over 30 µM; in experiment [6] it was over 10 µM. The AC50 in experiment [7], in experiment [8], in experiment [9] and in experiment [10] was over 10 µM each time.

Consider `Oc1ccc(CCNCCCCCCNCCc2ccccc2)cc1O` [DOPEXAMINE], for which the AC50 was over 30 µM in experiment [1]; over 30 µM in [2]; 23 µM in experiment [3]; over 30 µM in [4]; 2.9 µM in experiment [5]; over 30 µM in experiment [6]. The AC50 in experiment [7] is over 30 µM; in experiment [8], over 30 µM; in [9], 0.5 µM; in experiment [10], over 30 µM.

`C=CC[N+]1([C@H]2C[C@H]3[C@@H]4CC[C@H]5C[C@H](O)[C@@H](N6CCOCC6)C[C@]5(C)[C@H]4CC[C@]3(C)[C@H]2OC(C)=O)CCCC1` [ROCURONIUM]: the AC50 is over 30 µM in experiment [1]; over 30 µM in experiment [2]; over 30 µM in experiment [3]; over 30 µM in [4]; 1.06 µM in [5]; over 30 µM in [6]. Besides, the concentration at half-maximal activity (AC50) in [7], in [8], in [9] and in [10] was over 30 µM throughout.

In the case of `Clc1ccc(CCC(Cn2ccnc2)Sc2c(Cl)cccc2Cl)cc1` (stereo not given) [BUTOCONAZOLE], the concentration at half-maximal activity (AC50) in [1] is over 30 µM; in experiment [2], over 30 µM; in experiment [3], over 30 µM; in experiment [4], over 30 µM; in experiment [5] it was 5.9 µM; in [6], over 30 µM. The AC50 in experiment [7] is over 30 µM; in experiment [8], over 30 µM; in experiment [9] it was 20 µM; in [10], over 30 µM.

On to `CCCCOc1ccc(C(=O)CCN2CCCCC2)cc1` [DYCLONINE], for which the AC50 is over 10 µM in experiment [1]; over 30 µM in experiment [2]; over 10 µM in experiment [3]; over 10 µM in [4]; 3.3 µM in experiment [5]; over 30 µM in experiment [6]. The AC50 was over 30 µM in experiment [7], over 30 µM in [8], 4.82 µM in [9] and over 10 µM in experiment [10].

The values above are taken from ChEMBL document CHEMBL5291721, “A preclinical secondary pharmacology resource illuminates target-adverse drug reaction associations of marketed drugs” (Nat Commun, 2023).
